Results taken from patent US12264163B2, “Compounds and methods for treating fibrotic pathologies” (Mayo Foundation for Medical Education and Research, priority 2019, dated 2025).
Structures can show the parent of a compound that is named as a salt.

Columns and labels:
YAP/TAZ [1] = experiment: YAP/TAZ nuclear localization in adult lung fibroblasts, dose response (Cytation 5); assay type: cell-based; conditions: Homo sapiens, Fibroblast, 2 h, adult lung fibroblasts sparsely plated, treated 2 hours; read-out: IC50, inhibition of YAP/TAZ nuclear localization
Description: Adult lung fibroblasts (N=2) sparsely plated into 96-well plates. Treated for 2 hours with compounds prior to fixing and immunostaining for YAP/TAZ.
(§1) Immunofluorescence Microscopy: Cells were plated into 96 well plates (Corning 3603) in their specific growth media and allowed to attach (8 hours). Media was then exchanged for the indicated conditions for each experiment. Cells were fixed in 3.7% formalin (Sigma-Aldrich), permeabilized in 0.25% Triton X-100 (Sigma-Aldrich) and then blocked with 1% BSA for 1 h. Cells or tissue sections were incubated overnight with mouse monoclonal antibody against αSMA (Sigma-Aldrich F3777), and/or a rabbit monoclonal antibody against YAP/TAZ (Cell Signaling D24E4) diluted 1:200 in PBS with 1% BSA. Cells were then washed and exposed to flourescence-conjugated secondary antibodies (Invitrogen) diluted 1:1000 and DAPI (Thermo Fisher Scientific). Images were taken with a Cytation5 (BioTek) microscope. For scoring αSMA positive cells (FIG. 12), an observer blinded to the treatment conditions counted αSMA-positive cells using a visual threshold for bright fibrous staining; a minimum of 200 cells was counted for each condition. YAP/TAZ localization was quantified (FIGS. 6-10, 24-26, and 29-30) using Gen5 (Biotek) software. Images were taken at 4× magnification of both DAPI and YAP/TAZ staining. […] Quantification of double positive (YAP/TAZ and αSMA) cells from lung tissue sections (FIG. 17-21) was performed similarly; however separate thresholds were established for both YAP/TAZ and αSMA. A minimum of 4000 cells was quantified for each mouse.

CTGF, COL1A1, ACTA2, FN1 = experiment: Profibrotic / matrix remodeling gene expression by qPCR in fibroblasts; assay type: cell-based, human; conditions: IMR-90 lung fibroblasts; for profibrotic gene expression: 24 hours
Description: Genes which encode Connective tissue growth factor (CTGF), Collagen I (COL1A1), αSMA (ACTA2), and Fibronectin (FN1) are reduced by 24 hour treatment with DHX (10 μM), +/−SCH 39166 (3 μM). N=3 (****p<0.0001, ***p<0.001, *p<0.05 vs. 0.1% DMSO vehicle control)
IPF patient-derived fibroblasts cultured in media containing 0.1% FBS were stimulated for 24 hours with 2 ng/mL TGFβ and 10 μM DHX prior to RNA isolation. Genes which encode for ECM crosslinking: transglutaminase 2 (TGM2), lysyl oxidase and lysyl oxidase-like enzymes (LOX and LOXL1-4), ECM degradation: uPA (PLAU), tPa (PLAT), cathepsin K (CTSK), and matrix metalloprotease-14 (MMP14) and ECM protease inhibitors: metalloprotease inhibitor 3 (TIMP3), and plasminogen activator inhibitor 1 (SERPINE1) were measured. N=3. (****p<0.0001, ***p<0.001, **p<0.01, *p<0.05 vs. 0.1% DMSO vehicle control non-TGFβ treated), (++++p<0.0001, ++p<0.01, +p<0.05 vs. 0.10% DMSO vehicle control TGFβ treated).
For all other in vitro experiments, cells were treated as indicated prior to RNA isolation using RNeasy Plus Mini Kit (Qiagen) according to manufacturer's instructions. Isolated RNA (250 ng) was then used to synthesize cDNA using SuperScript VILO (Invitrogen). Quantitative PCR was performed using FastStart Essential DNA Green Master (Roche) and analyzed using a LightCycler 96 (Roche). Data are expressed as a fold change by ΔΔCt relative to GAPDH. For in vivo experiments, tissue was immediately frozen, and stored at −80° C. RNA isolation, cDNA synthesis, and qPCR analysis were performed as above.

[2] = tested on: IPF patient derived fibroblasts; experiment: Traction force microscopy of IPF patient-derived fibroblasts; assay type: cell-based, human; conditions: IPF fibroblasts on 6.4 kPa matrices
Description: Traction Force Microscopy: Traction analysis was conducted as previously described. […] IPF patient derived fibroblasts were plated on the gels overnight and treated as indicated before traction force measurements. Images of gel surface-conjugated fluorescent beads were acquired for each cell before and after trypsinization using a Nikon ECLIPSE Ti microscope at ×10 magnification. Traction forces were estimated by measuring bead displacement fields and computing corresponding traction fields using TractionsForAll (freely distributed program that calculates 2-D tractions exerted by an adherent cell on its substrate).

YAP/TAZ [3] = experiment: YAP/TAZ nuclear localization in IPF patient-derived lung fibroblasts treated with dopaminergic agonists; assay type: cell-based, human; conditions: for Nuclear localization (% of total cells): 10 μM, 2 hours
Description: IPF patient-derived lung fibroblasts cells treated 2 hours prior to fixation with diverse dopaminergic agonists (10 μM). N=4 different patient samples. % nuclear localization of YAP/TAZ was determined using automated imaging software. Scale bar represents 100 μm.
as §1, with “Media” for “Immunofluorescence Microscopy: Cells were plated into 96 well plates (Corning 3603) in their specific growth media and allowed to attach (8 hours). Media”, “Cells were fixed in 3.7% formalin (Sigma-Aldrich), permeabilized in 0.25% Triton X-100 (Sigma-Aldrich) and then blocked with 1% BSA for 1 h.” left out

αSMA = experiment: TGFβ-induced αSMA+ stress fiber formation in fibroblasts; assay type: cell-based, human; conditions: IPF-patient derived fibroblasts, TGFβ 48 hours, then dopamine 1 μM + TGFβ 24 hours
Description: as §1, with “Media” for “Immunofluorescence Microscopy: Cells were plated into 96 well plates (Corning 3603) in their specific growth media and allowed to attach (8 hours). Media”

cAMP = cAMP assay (cAMP-Glo) in fibroblasts; assay type: cell-based, human; conditions: IMR-90 lung fibroblasts
Description: FIG. 9 contains a bar graph showing cAMP measured in IPF patient-derived fibroblasts treated for 20 minutes with DHX (10 μM)+/−SCH 39166 (3 μM). N=3 (**p<0.01 vs. 0.1% DMSO vehicle control).
N=3, IMR-90 lung fibroblasts.
cAMPAssay: IPF patient derived fibroblasts were plated in EMEM containing 10% FBS overnight. […] 20 minutes prior to cell lysis media was removed and cells were treated with “induction buffer” containing nonselective phosphodiesterase inhibitors and the indicated concentration of compound(s). Luminescence was measured on a Flexstation 3 (Molecular Devices) plate reader.

YAP/TAZ [4] = experiment: YAP/TAZ nuclear localization in IMR-90 and other fibroblasts / mesenchymal cells (immunofluorescence); assay type: cell-based, human; conditions: IMR-90 lung fibroblasts
Description: Selective agonists of dopamine receptor D1 with varying efficacy inhibit YAP/TAZ nuclear localization; this effect can be overcome by treatment with a DRD1 receptor antagonist (SCH 39166, 3 μM), (Dihydrexidine, 10 μM). IMR-90 cells treated 2 hours prior to fixation. N=4 (****p<0.0001 vs. 0.10% DMSO vehicle control). Scale bar represents 100 μm.
In each case DHX treatment (10 μM) can reverse this effect on YAP/TAZ. IMR-90 cells plated densely onto plastic cell culture plates for 24 hours in media containing 0.1% FBS, treated for 2 hours prior to fixation. N=4 (****p<0.0001 vs. 0.1% DMSO vehicle control), (++++p<0.0001 vs. the respective stimulated agonist ET-1, LPA, or 5-HT). Scale bar represents 100 μm.
Mesenchymal cells derived from lung (IMR-90 and IPF-FBs) hepatic stellate cells (HSC), human adult cardiac fibroblasts, (HACF) and human dermal fibroblasts (HDF) were plated densely (Confluent) or sparsely (Control and all remaining conditions) onto plastic cell culture plates for 24 hours in media containing 0.10% FBS, treated for 2 hours with Rho kinase inhibitor Y27632, adenylate cyclase activator forskolin and DHX. N=4, Cells that were positive for nuclear YAP/TAZ were quantified by automated image analysis.
as §1

| Structure (SMILES) | IC50 (YAP/TAZ [1]) [nM] | profibrotic gene expression (CTGF, COL1A1, ACTA2, FN1) | effect of D1 antagonist on DHX's elevation of cAMP (cAMP) | effect of D1 antagonist on DHX's inhibition of YAP/TAZ target genes (CTGF, COL1A1, ACTA2, FN1) | effect of D1 antagonist on DHX's inhibition of YAP/TAZ nuclear localization (YAP/TAZ [4]) | also measured |
| --- | --- | --- | --- | --- | --- | --- |
| NCC1OC(C2CCCOC2)Cc2c1ccc(O)c2O (centres unmarked) [CTC-1] | 285 | inhibition of profibrotic gene expression |  |  |  |  |
| CC(C)(CO)C1Cc2c(ccc(O)c2O)C(CN)O1 (centres unmarked) [CTC-2] | 490 | inhibition of profibrotic gene expression |  |  |  |  |
| NCCc1ccc(O)c(O)c1 [Dopamine•HCl, Dopamine] |  |  |  |  |  | contractile forces (traction force microscopy) [2]: attenuates IPF fibroblast contractility; Nuclear localization (% of total cells) (YAP/TAZ [3]; IPF-1 patient fibroblasts): 39.85 % of total cells; Nuclear localization (% of total cells) (YAP/TAZ [3]; IPF-2 patient fibroblasts): 59.29 % of total cells; Nuclear localization (% of total cells) (YAP/TAZ [3]; IPF-3 patient fibroblasts): 49.67 % of total cells; Nuclear localization (% of total cells) (YAP/TAZ [3]; IPF-4 patient fibroblasts): 49.51 % of total cells; YAP/TAZ nuclear localization (YAP/TAZ [3]; low density IPF-patient derived fibroblasts on tissue culture plastic): inhibits YAP/TAZ nuclear localization; αSMA+ stress fiber formation (αSMA): reverses αSMA+ stress fiber formation |
| CN1CCc2ccccc2Cc2[nH]c3ccccc3c2CC1 [LE-300] |  |  | block DHX's elevation of cAMP | block DHX's inhibition of YAP/TAZ target genes | block DHX's inhibition of YAP/TAZ nuclear localization |  |
| CN1CCc2cc(Cl)c(O)cc2[C@H]2c3ccccc3CC[C@@H]21 [SCH-39166] |  |  | block DHX's elevation of cAMP | block DHX's inhibition of YAP/TAZ target genes | block DHX's inhibition of YAP/TAZ nuclear localization |  |
